Columns and labels:
Test in all cases: SILAC RP-ABPP
Format in all cases: cell-based
[1] = target: T1, PLBD2 Putative phospholipase Blike 2 (Q8NHP8) (Homo sapiens, UniProt Q8NHP8); settings: SILAC H/L, MDA-MB-231
T1 construct: endogenous in cells; host or cells: HEK293T or MDA-MB-231
In short: (§1)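 Heavy SILAC HEK293T or MDA-MB-231 cells were treated with a clickable hydrazine probe; light cells received the non-clickable analogue (enrichment) or the probe plus 10-fold excess non-clickable competitor (competition). Mixed proteomes underwent CuAAC with 100 μM biotin-azide for 1 h. Heavy:light ratios were taken as median peptide ratios (≥3 peptides) averaged over ≥3 replicates.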

[2] = target: T2, PYROXD2 Pyridine nucleotidedisulfide (Q8N2H3) (Homo sapiens, UniProt Q8N2H3); settings: SILAC H/L, MDA-MB-231
T2 construct: In Situ Labelling of Cells with Hydrazine Probes for MS Experiments; endogenous in cells; host or cells: HEK293T and/or MDA-MB-231
In short: as §1

[3] = target: T3, PLOD2 Procollagenlysine, 2oxoglutarate (O00469) (Homo sapiens, UniProt O00469); settings: SILAC H/L, MDA-MB-231
T3 construct: endogenous in cells; host or cells: HEK293T or MDA-MB-231
In short: as §1

[4] = target: T4, ACAA1 3ketoacylCoA thiolase, peroxisomal (P09110) (Homo sapiens, UniProt P09110); settings: SILAC H/L, MDA-MB-231
T4 construct: endogenous in cells; host or cells: HEK293T or MDA-MB-231
In short: as §1

[5] = target: T5, CYP51A1 Lanosterol 14alpha demethylase (Q16850) (Homo sapiens, UniProt Q16850); settings: SILAC H/L, HEK293T
T5 construct: In Situ Labelling of Cells with Hydrazine Probes for MS Experiments; endogenous in cells; host or cells: HEK293T and/or MDA-MB-231
In short: as §1

[6] = target: T6, SELENBP1 Seleniumbinding protein 1 (Q13228) (Homo sapiens, UniProt Q13228); settings: SILAC H/L, MDA-MB-231
T6 construct: endogenous in cells; host or cells: HEK293T or MDA-MB-231
In short: as §1

[7] = target: T7, KDM1B Lysinespecific histone demethylase 1B (Q8NB78) (Homo sapiens, UniProt Q8NB78); settings: SILAC H/L, HEK293T
T7 construct: In Situ Labelling of Cells with Hydrazine Probes for MS Experiments; endogenous in cells; host or cells: HEK293T and/or MDA-MB-231
In short: as §1

[8] = target: T8, ALKBH1 Alkylated DNA repair protein alkB (Q13686) (Homo sapiens, UniProt Q13686); settings: SILAC H/L, HEK293T
T8 construct: In Situ Labelling of Cells with Hydrazine Probes for MS Experiments; endogenous in cells
In short: as §1

[9] = target: T9, aminotransferase, mitoch (O15382) (Homo sapiens, UniProt O15382); settings: SILAC H/L, MDA-MB-231
T9 construct: endogenous in cells; host or cells: HEK293T or MDA-MB-231
In short: as §1

[10] = target: T10, TTC38 Tetratricopeptide repeat protein 38 (Q5R3I4) (Homo sapiens, UniProt Q5R3I4); settings: SILAC H/L, HEK293T
T10 construct: In Situ Labelling of Cells with Hydrazine Probes for MS Experiments; endogenous in cells; host or cells: HEK293T and/or MDA-MB-231
In short: as §1

NEU1 Sialidase1 (Q99519) = target: T11, NEU1 Sialidase1 (Q99519) (Homo sapiens, UniProt Q99519); settings: SILAC H/L, MDA-MB-231
T11 construct: endogenous in cells; host or cells: HEK293T or MDA-MB-231
In short: as §1

[11] = target: T12, CPD Carboxypeptidase D (O75976) (Homo sapiens, UniProt O75976); settings: SILAC H/L, MDA-MB-231
T12 construct: In Situ Labelling of Cells with Hydrazine Probes for MS Experiments; endogenous in cells; host or cells: HEK293T and/or MDA-MB-231
In short: as §1

[12] = target: T13, CYCS Cytochrome c (P99999) (Homo sapiens, UniProt P99999); settings: SILAC H/L, HEK293T
T13 construct: In Situ Labelling of Cells with Hydrazine Probes for MS Experiments; endogenous in cells; host or cells: HEK293T and/or MDA-MB-231
In short: as §1

[13] = target: T14, CYP27A1 Sterol 26hydroxylase, mitochondrial (Q02318) (Homo sapiens, UniProt Q02318); settings: SILAC H/L, MDA-MB-231
T14 construct: endogenous in cells; host or cells: HEK293T or MDA-MB-231
In short: as §1

T4 sequence (P09110 27-424): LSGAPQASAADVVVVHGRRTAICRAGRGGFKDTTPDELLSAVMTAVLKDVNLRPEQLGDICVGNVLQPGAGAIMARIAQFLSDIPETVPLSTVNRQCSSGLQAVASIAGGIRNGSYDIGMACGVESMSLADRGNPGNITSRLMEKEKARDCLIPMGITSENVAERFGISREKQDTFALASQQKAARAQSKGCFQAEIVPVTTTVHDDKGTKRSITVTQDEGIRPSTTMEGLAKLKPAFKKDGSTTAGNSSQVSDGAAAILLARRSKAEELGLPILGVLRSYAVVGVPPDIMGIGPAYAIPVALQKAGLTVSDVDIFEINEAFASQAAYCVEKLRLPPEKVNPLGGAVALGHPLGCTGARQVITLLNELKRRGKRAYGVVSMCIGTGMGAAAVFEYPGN
T9 sequence (O15382 28-392): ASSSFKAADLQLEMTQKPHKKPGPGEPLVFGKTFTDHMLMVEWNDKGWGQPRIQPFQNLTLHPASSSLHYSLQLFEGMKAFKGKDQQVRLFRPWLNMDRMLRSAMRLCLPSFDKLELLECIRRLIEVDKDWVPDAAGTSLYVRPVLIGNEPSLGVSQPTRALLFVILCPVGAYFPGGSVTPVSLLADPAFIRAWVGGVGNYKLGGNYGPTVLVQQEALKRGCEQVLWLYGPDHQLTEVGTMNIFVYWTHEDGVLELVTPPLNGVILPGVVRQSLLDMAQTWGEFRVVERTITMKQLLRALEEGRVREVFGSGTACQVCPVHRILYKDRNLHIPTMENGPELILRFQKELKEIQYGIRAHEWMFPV
T7 sequence (Q8NB78 whole entry): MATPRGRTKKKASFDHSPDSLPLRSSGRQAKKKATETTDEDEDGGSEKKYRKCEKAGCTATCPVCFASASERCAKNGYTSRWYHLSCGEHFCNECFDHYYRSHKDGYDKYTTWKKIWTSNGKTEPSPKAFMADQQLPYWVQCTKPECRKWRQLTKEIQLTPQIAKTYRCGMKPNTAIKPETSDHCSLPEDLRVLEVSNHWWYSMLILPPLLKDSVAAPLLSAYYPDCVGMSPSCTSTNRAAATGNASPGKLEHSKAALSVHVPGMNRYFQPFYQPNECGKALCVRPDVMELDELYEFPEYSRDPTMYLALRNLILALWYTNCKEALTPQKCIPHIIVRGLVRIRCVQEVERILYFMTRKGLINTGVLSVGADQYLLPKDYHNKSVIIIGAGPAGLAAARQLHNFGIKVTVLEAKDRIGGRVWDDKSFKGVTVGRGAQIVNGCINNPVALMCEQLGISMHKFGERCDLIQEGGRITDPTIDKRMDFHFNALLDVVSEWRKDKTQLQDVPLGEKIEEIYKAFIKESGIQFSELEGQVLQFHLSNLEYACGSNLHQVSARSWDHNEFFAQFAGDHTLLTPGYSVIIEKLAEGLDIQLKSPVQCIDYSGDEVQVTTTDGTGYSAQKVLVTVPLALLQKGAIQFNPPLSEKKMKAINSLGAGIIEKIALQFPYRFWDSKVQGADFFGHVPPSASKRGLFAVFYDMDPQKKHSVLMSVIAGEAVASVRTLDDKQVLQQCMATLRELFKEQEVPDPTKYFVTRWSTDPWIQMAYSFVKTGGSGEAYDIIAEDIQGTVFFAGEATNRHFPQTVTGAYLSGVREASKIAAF
T12 sequence (O75976 32-1380): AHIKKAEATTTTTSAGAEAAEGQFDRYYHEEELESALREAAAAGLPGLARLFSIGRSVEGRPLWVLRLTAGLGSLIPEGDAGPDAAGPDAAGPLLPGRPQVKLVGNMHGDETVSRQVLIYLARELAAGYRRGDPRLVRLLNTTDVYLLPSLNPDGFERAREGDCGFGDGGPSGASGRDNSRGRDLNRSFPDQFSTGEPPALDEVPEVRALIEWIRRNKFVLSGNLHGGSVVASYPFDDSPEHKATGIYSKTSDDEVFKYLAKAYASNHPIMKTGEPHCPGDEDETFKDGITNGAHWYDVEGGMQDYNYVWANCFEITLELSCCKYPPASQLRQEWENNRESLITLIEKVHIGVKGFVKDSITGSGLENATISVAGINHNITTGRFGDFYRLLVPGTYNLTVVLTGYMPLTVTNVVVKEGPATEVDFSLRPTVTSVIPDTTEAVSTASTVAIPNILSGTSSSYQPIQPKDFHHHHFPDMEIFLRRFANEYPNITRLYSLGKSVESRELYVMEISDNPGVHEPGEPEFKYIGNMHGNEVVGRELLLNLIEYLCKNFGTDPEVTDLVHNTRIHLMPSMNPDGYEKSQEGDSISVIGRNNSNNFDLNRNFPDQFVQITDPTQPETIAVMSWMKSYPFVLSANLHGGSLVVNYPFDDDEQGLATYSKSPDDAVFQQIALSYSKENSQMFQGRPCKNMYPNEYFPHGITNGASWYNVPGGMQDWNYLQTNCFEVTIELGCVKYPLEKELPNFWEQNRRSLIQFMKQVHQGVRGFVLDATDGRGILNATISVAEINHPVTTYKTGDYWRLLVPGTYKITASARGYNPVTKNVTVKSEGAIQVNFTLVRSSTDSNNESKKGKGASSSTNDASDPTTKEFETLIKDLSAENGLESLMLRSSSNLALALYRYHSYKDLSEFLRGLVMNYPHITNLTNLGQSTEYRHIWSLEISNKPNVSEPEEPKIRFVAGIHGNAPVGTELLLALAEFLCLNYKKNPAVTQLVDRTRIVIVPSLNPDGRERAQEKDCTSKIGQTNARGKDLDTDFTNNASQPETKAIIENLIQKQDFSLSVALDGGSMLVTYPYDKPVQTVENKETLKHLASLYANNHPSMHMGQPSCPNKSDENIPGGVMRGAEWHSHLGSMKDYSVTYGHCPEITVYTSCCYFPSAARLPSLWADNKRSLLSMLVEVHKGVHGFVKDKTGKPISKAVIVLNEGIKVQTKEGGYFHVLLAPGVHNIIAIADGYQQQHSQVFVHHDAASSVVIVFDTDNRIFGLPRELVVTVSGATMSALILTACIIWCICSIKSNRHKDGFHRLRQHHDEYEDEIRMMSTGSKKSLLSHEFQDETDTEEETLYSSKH
T10 sequence (Q5R3I4 whole entry): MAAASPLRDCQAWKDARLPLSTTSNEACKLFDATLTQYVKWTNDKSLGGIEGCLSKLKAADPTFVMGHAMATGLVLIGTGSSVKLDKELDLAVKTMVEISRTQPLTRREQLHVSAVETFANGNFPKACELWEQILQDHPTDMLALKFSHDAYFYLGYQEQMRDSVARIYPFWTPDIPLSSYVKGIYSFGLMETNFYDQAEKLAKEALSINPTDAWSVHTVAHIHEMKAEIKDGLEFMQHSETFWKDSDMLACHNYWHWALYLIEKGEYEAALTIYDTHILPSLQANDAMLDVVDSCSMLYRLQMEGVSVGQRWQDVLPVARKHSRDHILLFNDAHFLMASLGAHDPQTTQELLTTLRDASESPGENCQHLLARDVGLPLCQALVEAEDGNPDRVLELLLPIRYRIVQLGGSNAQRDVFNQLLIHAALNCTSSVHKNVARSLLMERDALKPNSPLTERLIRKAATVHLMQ
T6 sequence (Q13228 whole entry): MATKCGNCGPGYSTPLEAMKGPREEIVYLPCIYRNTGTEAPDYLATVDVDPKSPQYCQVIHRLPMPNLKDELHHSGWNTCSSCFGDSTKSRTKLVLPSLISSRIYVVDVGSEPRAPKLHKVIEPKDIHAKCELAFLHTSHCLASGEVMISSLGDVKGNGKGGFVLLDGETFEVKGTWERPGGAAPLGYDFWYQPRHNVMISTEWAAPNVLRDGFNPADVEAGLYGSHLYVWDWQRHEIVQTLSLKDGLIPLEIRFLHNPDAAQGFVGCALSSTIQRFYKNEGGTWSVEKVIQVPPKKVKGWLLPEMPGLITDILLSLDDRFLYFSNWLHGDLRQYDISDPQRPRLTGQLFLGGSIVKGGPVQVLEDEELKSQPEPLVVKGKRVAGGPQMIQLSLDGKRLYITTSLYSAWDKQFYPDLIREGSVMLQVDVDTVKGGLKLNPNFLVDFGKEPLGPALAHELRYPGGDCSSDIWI
T14 sequence (Q02318 34-531): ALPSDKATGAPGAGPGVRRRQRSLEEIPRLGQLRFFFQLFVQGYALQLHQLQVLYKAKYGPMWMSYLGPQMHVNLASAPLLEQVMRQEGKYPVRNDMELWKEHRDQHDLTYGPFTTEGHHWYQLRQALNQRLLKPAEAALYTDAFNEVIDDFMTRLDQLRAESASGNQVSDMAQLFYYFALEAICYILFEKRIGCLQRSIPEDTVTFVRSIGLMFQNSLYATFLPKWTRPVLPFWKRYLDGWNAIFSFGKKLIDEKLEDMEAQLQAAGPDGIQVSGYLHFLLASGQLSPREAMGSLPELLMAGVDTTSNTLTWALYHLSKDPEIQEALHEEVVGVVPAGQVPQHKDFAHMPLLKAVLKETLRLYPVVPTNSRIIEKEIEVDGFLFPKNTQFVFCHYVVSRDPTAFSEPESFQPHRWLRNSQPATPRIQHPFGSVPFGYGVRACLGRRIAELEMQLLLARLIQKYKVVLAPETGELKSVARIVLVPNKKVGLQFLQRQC
T13 sequence (P99999 whole entry): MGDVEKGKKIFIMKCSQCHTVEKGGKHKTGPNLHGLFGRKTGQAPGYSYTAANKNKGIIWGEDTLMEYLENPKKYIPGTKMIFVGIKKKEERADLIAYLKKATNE
T1 sequence (Q8NHP8 42-589): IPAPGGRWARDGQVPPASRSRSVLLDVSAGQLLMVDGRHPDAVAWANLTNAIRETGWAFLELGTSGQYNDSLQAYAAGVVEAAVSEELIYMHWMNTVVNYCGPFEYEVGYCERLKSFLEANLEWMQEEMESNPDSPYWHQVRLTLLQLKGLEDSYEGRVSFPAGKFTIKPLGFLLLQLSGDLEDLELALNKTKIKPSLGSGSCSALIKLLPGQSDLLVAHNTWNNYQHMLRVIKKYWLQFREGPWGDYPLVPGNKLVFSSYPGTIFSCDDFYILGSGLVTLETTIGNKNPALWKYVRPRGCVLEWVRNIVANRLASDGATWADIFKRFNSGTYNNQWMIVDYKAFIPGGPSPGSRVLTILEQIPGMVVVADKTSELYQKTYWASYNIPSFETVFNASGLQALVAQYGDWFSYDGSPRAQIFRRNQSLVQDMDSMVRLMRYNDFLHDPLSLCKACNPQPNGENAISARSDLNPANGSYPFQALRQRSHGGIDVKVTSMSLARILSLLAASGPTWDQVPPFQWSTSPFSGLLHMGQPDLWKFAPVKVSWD

## C#CCCNC(=O)c1ccc(NN)cc1.Cl [probe 2, N-(but-3-yn-1-yl)-4-hydrazinylbenzamide hydrochloride]
[1]; probe 2 1 mM 0.5 h vs probe 4
  enrichment ratioavg: 9
[1]; probe 2 vs probe 2+10x probe 4
  competition ratioavg: 3
[2]; probe 2 1 mM 0.5 h vs probe 4
  enrichment ratioavg: 20
[2]; probe 2 vs probe 2+10x probe 4
  competition ratioavg: 20
[3]; probe 2 1 mM 0.5 h vs probe 4
  enrichment ratioavg: 6
[3]; probe 2 vs probe 2+10x probe 4
  competition ratioavg: 2
[4]; probe 2 1 mM 0.5 h vs probe 4
  enrichment ratioavg: 6
[4]; probe 2 vs probe 2+10x probe 4
  competition ratioavg: 2
[5]; probe 2 1 mM 0.5 h vs probe 4
  enrichment ratioavg: 14
[5]; probe 2 vs probe 2+10x probe 4
  competition ratioavg: 6
[6]; probe 2 1 mM 0.5 h vs probe 4
  enrichment ratioavg: 20
[6]; probe 2 vs probe 2+10x probe 4
  competition ratioavg: 3
[7]; probe 2 1 mM 0.5 h vs probe 4
  enrichment ratioavg: 17
[7]; probe 2 vs probe 2+10x probe 4
  competition ratioavg: 2
[8]; probe 2 1 mM 0.5 h vs probe 4
  enrichment ratioavg: 20
[8]; probe 2 vs probe 2+10x probe 4
  competition ratioavg: 8
[9]; probe 2 1 mM 0.5 h vs probe 4
  enrichment ratioavg: 15
[9]; probe 2 vs probe 2+10x probe 4
  competition ratioavg: 2
[10]; probe 2 1 mM 0.5 h vs probe 4
  enrichment ratioavg: 14
[10]; probe 2 vs probe 2+10x probe 4
  competition ratioavg: 2
NEU1 Sialidase1 (Q99519); probe 2 1 mM 0.5 h vs probe 4
  enrichment ratioavg: 5
NEU1 Sialidase1 (Q99519); probe 2 vs probe 2+10x probe 4
  competition ratioavg: 3
[11]; probe 2 1 mM 0.5 h vs probe 4
  enrichment ratioavg: 20
[11]; probe 2 vs probe 2+10x probe 4
  competition ratioavg: 15
[12]; probe 2 1 mM 0.5 h vs probe 4
  enrichment ratioavg: 7
[12]; probe 2 vs probe 2+10x probe 4
  competition ratioavg: 0
[13]; probe 2 1 mM 0.5 h vs probe 4
  enrichment ratioavg: 20
[13]; probe 2 vs probe 2+10x probe 4
  competition ratioavg: 3

Reference: patent US11226337B2, “Chemoproteomic profiling of protein electrophilic and oxidative post-translational modifications” (Zenagem, LLC, priority 2017, dated 2022)
